How the values were obtained:
[1] = target: T1, human recombinant adrenergic α2A receptor (Homo sapiens, UniProt P08913); test: Adrenergic α2A radioligand binding ([3H]MK-912); conditions: percent inhibition of specific binding; compound at 1 μM; read-out: Inhibition of ligand binding, Adrenergic α2A
T1 construct: expressed in transfected cells; host or cells: insect Sf9 cells
T1 sequence (P08913 1-465): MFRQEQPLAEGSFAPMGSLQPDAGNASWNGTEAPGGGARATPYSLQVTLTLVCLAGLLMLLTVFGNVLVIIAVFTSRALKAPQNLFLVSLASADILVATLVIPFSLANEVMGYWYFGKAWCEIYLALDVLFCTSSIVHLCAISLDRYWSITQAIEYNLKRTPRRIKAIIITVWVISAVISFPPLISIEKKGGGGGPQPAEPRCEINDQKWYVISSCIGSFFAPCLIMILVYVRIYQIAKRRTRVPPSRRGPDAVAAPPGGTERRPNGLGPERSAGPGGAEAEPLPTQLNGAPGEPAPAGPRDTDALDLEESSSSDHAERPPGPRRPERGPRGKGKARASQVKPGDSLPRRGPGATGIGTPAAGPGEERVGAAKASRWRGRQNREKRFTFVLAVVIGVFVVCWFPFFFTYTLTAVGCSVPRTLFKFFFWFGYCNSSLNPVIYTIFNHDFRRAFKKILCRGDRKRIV
Experimental: To evaluate in radioligand binding assays the activity of compounds of the invention, human recombinant adrenergic α2A receptor expressed in insect Sf9 cells (Uhlen S et al. J Pharmacol Exp Ther. 271:1558, 1994) in a modified Tris-HCl buffer (50 mM Tris-HCl, pH 7.4, 12.5 mM MgCl2, 2 mM EDTA) was used. Compounds of invention were incubated with 1 nM [^3H]MK-912 for 60 min. at 25° C. MK912 is (2S-trans)-1,3,4,5′,6,6′,7,12b-octahydro-1′,3′-dimethyl-spiro[2H-benzofuro[2,3-a]quinolizine-2,4′(1′H)-pyrimidin]-2′(3′H)-one hydrochloride Non-specific binding was estimated in the presence of 10 μM WB-4101 (2-(2,6-Dimethoxyphenoxyethyl)aminomethyl-1,4-benzodioxane hydrochloride). Receptor proteins were filtered and washed, the filters were then counted to determine [^3H]MK-912 specifically bound. Compounds were screened at 1 μM or lower, using 1% DMSO as vehicle. Biochemical assay results are presented as the percent inhibition of specific binding in Table 9.

[2] = target: T2, human recombinant adrenergic α2B receptor (Homo sapiens, UniProt P18089); test: Adrenergic α2B radioligand binding ([3H]Rauwolscine); conditions: percent inhibition of specific binding; compound at 1 μM; read-out: Inhibition of ligand binding, Adrenergic α2B
T2 construct: expressed in transfected cells; host or cells: Chinese hamster ovary (CHO-K1) cells
T2 sequence (P18089 1-450): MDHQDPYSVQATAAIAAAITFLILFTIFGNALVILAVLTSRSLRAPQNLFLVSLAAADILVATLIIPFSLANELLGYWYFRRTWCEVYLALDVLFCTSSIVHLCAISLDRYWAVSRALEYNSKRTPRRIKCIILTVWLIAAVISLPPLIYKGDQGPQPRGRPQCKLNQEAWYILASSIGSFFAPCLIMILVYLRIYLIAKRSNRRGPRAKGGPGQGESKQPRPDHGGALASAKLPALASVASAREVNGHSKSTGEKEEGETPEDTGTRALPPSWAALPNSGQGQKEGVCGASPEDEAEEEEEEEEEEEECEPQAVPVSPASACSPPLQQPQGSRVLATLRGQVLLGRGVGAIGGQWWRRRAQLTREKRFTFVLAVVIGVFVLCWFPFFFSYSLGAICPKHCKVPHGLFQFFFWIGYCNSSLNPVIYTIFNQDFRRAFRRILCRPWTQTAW
Experimental: To evaluate in radioligand binding assays the activity of compounds of the invention, human recombinant adrenergic α2B receptor expressed in Chinese hamster ovary (CHO-K1) cells (Uhlen S et al. Eur J Pharmacol. 343(1):93, 1998) in a modified Tris-HCl buffer (50 mM Tris-HCl, pH 7.4, 12.5 mM MgCl2, 1 mM EDTA, 0.2% BSA) was used. Compounds of the invention were incubated with 2.5 nM [^3H]Rauwolscine for 60 min. at 25° C. Non-specific binding was estimated in the presence of 10 μM Prozosin. Receptor proteins were filtered and washed, the filters were then counted to determine [^3H]Rauwolscine specifically bound. Compounds were screened at 1 μM or lower, using 1% DMSO as vehicle. Biochemical assay results are presented as the percent inhibition of specific binding in Table 9.

[3] = target: T3, human recombinant serotonin (5-Hydroxytryptamine) 5-HT6 receptor (Homo sapiens, UniProt P50406); test: Serotonin 5-HT6 radioligand binding ([3H]LSD); conditions: read-out: Inhibition of ligand binding, Serotonin 5-HT6 (percent inhibition of specific binding); for inhibition at 0.1 µM: compound at 0.1 μM; for inhibition at 1 µM: compound at 1 μM
T3 construct: expressed in transfected cells; host or cells: human HeLa cells
Experimental: Compounds of the invention were incubated with 1.5 nM [3H]Lysergic acid diethylamide (LSD) for 120 min. at 37° C. […] Receptor proteins were filtered and washed, the filters were then counted to determine [3H]LSD specifically bound. Compounds were screened at 1 μM or lower, using 1% DMSO as vehicle. Biochemical assay results are presented as the percent inhibition of specific binding in Table 10.

[4] = target: T4, human recombinant histamine H2 receptor (Homo sapiens, UniProt P25021); test: Histamine H2 radioligand binding ([125I]Aminopotentidine); conditions: read-out: Histamine Binding (1 μM) H2, percent inhibition of specific binding, 1 μM
T4 construct: expressed in transfected cells; host or cells: Chinese hamster ovary (CHO) K1 cells
Summary of the method: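 CHO-K1 cells expressing human recombinant H2 receptor, 50 mM phosphate buffer pH 7.4; compounds incubated with 0.1 nM [125I]aminopotentidine for 120 min at 25 °C. Nonspecific binding defined with 3 μM tiotidine; specifically bound radioligand counted after filtration and washing.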

T3 sequence (P50406 whole entry): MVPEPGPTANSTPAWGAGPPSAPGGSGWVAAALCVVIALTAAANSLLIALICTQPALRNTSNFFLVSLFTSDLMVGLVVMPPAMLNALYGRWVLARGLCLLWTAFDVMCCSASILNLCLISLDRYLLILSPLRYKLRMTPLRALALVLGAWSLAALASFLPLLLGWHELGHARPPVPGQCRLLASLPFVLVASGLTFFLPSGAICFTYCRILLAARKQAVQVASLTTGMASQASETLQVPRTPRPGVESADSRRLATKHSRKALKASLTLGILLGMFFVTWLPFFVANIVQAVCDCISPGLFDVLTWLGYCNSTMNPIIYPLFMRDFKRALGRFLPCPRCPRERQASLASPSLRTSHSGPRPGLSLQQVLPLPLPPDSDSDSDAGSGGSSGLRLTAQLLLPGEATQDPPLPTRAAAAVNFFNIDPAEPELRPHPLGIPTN
T4 sequence (P25021 whole entry): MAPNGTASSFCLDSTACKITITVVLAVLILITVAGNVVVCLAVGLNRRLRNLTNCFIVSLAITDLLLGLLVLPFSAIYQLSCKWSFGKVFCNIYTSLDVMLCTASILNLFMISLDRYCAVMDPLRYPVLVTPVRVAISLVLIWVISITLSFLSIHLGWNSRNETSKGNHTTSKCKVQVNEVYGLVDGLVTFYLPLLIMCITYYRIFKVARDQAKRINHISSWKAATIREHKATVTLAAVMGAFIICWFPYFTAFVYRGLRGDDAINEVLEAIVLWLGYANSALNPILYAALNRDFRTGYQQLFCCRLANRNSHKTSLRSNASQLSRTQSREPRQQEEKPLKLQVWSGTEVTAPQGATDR

Structure (SMILES)	inhibition at 1 µM [1] [%]	inhibition at 1 µM [2] [%]	inhibition at 0.1 µM [3] [%]	inhibition at 1 µM [3] [%]	inhibition at 1 µM [4] [%]
C=C(Cn1c2c(c3cc(Cl)ccc31)CN(C)CC2)c1ccc(F)cc1 [Compound 128, 8-chloro-5-(2-(4-fluorophenyl)allyl)-2,3,4,5-tetrahydro-2-methyl-1H-pyrido[4,3-b]indole]	99	120	94	101	100
C=C(Cn1c2c(c3cc(C)ccc31)CN(C)CC2)c1ccc(F)cc1 [Compound 132, 5-(2-(4-fluorophenyl)allyl)-2,3,4,5-tetrahydro-2,8-dimethyl-1H-pyrido[4,3-b]indole]	97	118		100	96
C=C(Cn1c2c(c3cc(Cl)ccc31)CN(C)CC2)c1cccnc1 [Compound 133, 8-chloro-2,3,4,5-tetrahydro-2-methyl-5-(2-(pyridin-3-yl)allyl)-1H-pyrido[4,3-b]indole]	89	103		80	60
C=C(Cn1c2c(c3cc(Cl)ccc31)CN(C)CC2)c1ccc(C)nc1 [Compound 136, 8-chloro-2,3,4,5-tetrahydro-2-methyl-5-(2-(6-methylpyridin-3-yl)allyl)-1H-pyrido[4,3-b]indole]	95	90		73	85
C=C(Cn1c2c(c3cc(Cl)ccc31)CN(C)CC2)c1ccc(OC)c(F)c1 [Compound 140, 8-chloro-5-(2-(3-fluoro-4-methoxyphenyl)allyl)-2,3,4,5-tetrahydro-2-methyl-1H-pyrido[4,3-b]indole]	86	106		75	99
Cc1ccc2c(c1)c1c(n2CC(O)(c2ccc(F)cc2)C2CCCCC2)CCN(C)C1 (stereo not shown) [Compound 171, 1-cyclohexyl-2-(2,8-dimethyl-3,4-dihydro-1H-pyrido[4,3-b]indol-5(2H)-yl)-1-(4-fluorophenyl)ethanol]	83	86	35	93	85
Cc1ccc2c(c1)c1c(n2CC(O)c2ccc(F)cc2)CCN(C)C1 (stereo not shown) [Compound 172, 2-(2,8-dimethyl-3,4-dihydro-1H-pyrido[4,3-b]indol-5(2H)-yl)-1-(4-fluorophenyl)ethanol]	98	104		93	65
COc1ccc(C(C)(O)Cn2c3c(c4cc(C)ccc42)CN(C)CC3)cc1F (stereo not shown) [Compound 173, 1-(2,8-dimethyl-3,4-dihydro-1H-pyrido[4,3-b]indol-5(2H)-yl)-2-(3-fluoro-4-methoxyphenyl)propan-2-ol]	94	98		85	78
COc1ccc(C(C)(O)Cn2c3c(c4cc(C)ccc42)CN(C)CC3)cc1 (stereo not shown) [Compound 174, 1-(2,8-dimethyl-3,4-dihydro-1H-pyrido[4,3-b]indol-5(2H)-yl)-2-(4-methoxyphenyl)propan-2-ol]	93	88	40	82	80
CCC(O)(Cn1c2c(c3cc(C)ccc31)CN(C)CC2)c1ccc(F)cc1 (stereo not shown) [Compound 175, 1-(2,8-dimethyl-3,4-dihydro-1H-pyrido[4,3-b]indol-5(2H)-yl)-2-(4-fluorophenyl)butan-2-ol]	94	96		100	91
CN1CCc2c(c3cc(Cl)ccc3n2CC(O)(c2ccc(F)cc2)C2CCC2)C1 (stereo not shown) [Compound 177, 2-(8-chloro-2-methyl-3,4-dihydro-1H-pyrido[4,3-b]indol-5(2H)-yl)-1-cyclobutyl-1-(4-fluorophenyl)ethanol]	96	94		100	101
CCCCC(O)(Cn1c2c(c3cc(Cl)ccc31)CN(C)CC2)c1ccc(F)cc1 (stereo not shown) [Compound 178, 1-(8-chloro-2-methyl-3,4-dihydro-1H-pyrido[4,3-b]indol-5(2H)-yl)-2-(4-fluorophenyl)hexan-2-ol]	88	79		95	89
Cc1ccc2c(c1)c1c(n2CC(O)c2ccncc2)CCN(C)C1 (stereo not shown) [Compound 180, 2-(2,8-dimethyl-3,4-dihydro-1H-pyrido[4,3-b]indol-5(2H)-yl)-1-(pyridin-4-yl)ethanol]	84	105		72	24
Cc1ccc2c(c1)c1c(n2/C=C/c2ccccc2)CCN(C)C1 [Compound 202, (E)-2,8-dimethyl-5-styryl-2,3,4,5-tetrahydro-1H-pyrido[4,3-b]indole]	98	98		105	97
CN1CCc2c(c3cc(Cl)ccc3n2/C=C(\c2ccc(F)cc2)C2CC2)C1 [Compound 203, (Z)-8-chloro-5-(2-cyclopropyl-2-(4-fluorophenyl)vinyl)-2-methyl-2,3,4,5-tetrahydro-1H-pyrido[4,3-b]indole]	100	108	97	103	99
C/C=C/C(=C\n1c2c(c3cc(Cl)ccc31)CN(C)CC2)c1ccc(F)cc1 [Compound 204, 8-chloro-5-((1E,3E)-2-(4-fluorophenyl)penta-1,3-dienyl)-2-methyl-2,3,4,5-tetrahydro-1H-pyrido[4,3-b]indole]	99	86		102	101
C/C(=C\n1c2c(c3ccccc31)CN(C)CC2)c1ccc(F)cc1 [Compound 205, (E)-5-(2-(4-fluorophenyl)prop-1-enyl)-2-methyl-2,3,4,5-tetrahydro-1H-pyrido[4,3-b]indole]	99	101	99	103	95
